Results on 9 molecules are retold here after patent US20230158025A1 (UNIVERSITY OF UTAH RESEARCH FOUNDATION, priority 2020, published 2023).

Each structure is given as a SMILES string. Where two headings read alike, the source gives them in different places. A value given as a limit tells only on which side of the number the result lay.

The nature of data set [1]: rat microsomal stability (RLM). The settings on record: for half-life: rat, rat liver microsomes.
The next data set addresses T1, hGALK1m (Homo sapiens, UniProt P51570, E253A/K252A).
T1 construct: made in house; host or cells: E. coli HMS174
Briefly: in vitro hGALK1 activity assay of the structure-based optimisation (Example 12, Tables 17-20). The format is biochemical. How it is done:
In vitro hGALK1 activity assays were performed as previously described. Liu et al., Bioorg. Med. Chem. Lett. 25(3): 721-727 (2015), which is incorporated by reference herein for the specific teachings thereof. The biochemical assay was performed by coupling the activity of recombinant human or mouse GALK1 to the Kinase-Glo Plus luminescent ATP detection kit, using ATP depletion as a measure of GALK1 turnover. Specifically, three μL/well of ATP substrate solution (35 μM ATP) in assay buffer (20 mM HEPES pH 8.0, 5 mM MgCl2, 60 mM NaCl, 1 mM DTT, 0.01% BSA final concentration) was dispensed into 1536-well assay plates (Greiner, white solid-bottom medium-binding plates). Aliquots of compound (23 nL solubilized in DMSO) were transferred to the assay plates using a Kalypsys 1536-well pintool such that 11 concentrations with 1/3 dilutions ranging from 57.4 μM-0.97 nM are tested. One μL/well of GALK-galactose solution (5 nM GALK1, 100 μM galactose) in assay buffer was then added, yielding a final reaction volume of 4 μL/well. Following a 1-hour room temperature incubation, 4 μL of Kinase-Glo Plus detection reagent was added to provide an ATP-dependent luminescent readout (final assay volume: 8 μL/well). Luminescence was detected using a ViewLux plate reader (PerkinElmer) after a 10-minute incubation, using a 1 second exposure time and 2× binning.
The in vitro hGALK1 activity assay was performed as previously described. Liu et al., Bioorg. Med. Chem. Lett. 25(3): 721-727 (2015). For the measurement of cellular Gal-1P reduction, compounds at different concentrations were added to cultured patient fibroblast at 80% confluency. After incubating the compounds for 16 hours, 10 mM galactose was added to the culture. After another 4 hours, cells were washed with cold PBS buffer 3× and harvested for gal-1P measurement, according to the previously published method. Liu et al., Bioorg. Med. Chem. Lett. 25(3): 721-727 (2015).

The target in a further data set is recombinant human GALK1 (Homo sapiens, UniProt P51570). Briefly: hGALK1 biochemical activity assay (Kinase-Glo Plus, ATP depletion). The procedure, abridged:
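Turnover is measured as ATP depletion by Kinase-Glo Plus luminescence after a 1 h room-temperature reaction. Compounds span 11 concentrations, 57.4 μM–0.97 nM, in final 20 mM HEPES pH 8.0 with 5 mM MgCl2. The substrate solution held 35 μM ATP; the added solution held 5 nM human or mouse GALK1 and 100 μM galactose.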

A further data set is described as follows: PAMPA permeability. As to conditions: for Papp: ADME P: PAMPA permeability (class), Tables 17-19, class probably colour-coded, colour lost.
The nature of data set [2]: aqueous kinetic solubility.
Another data set has as its target recombinant mouse GALK1 (Mus musculus, UniProt Q9R0N0). Briefly: mGALK1 biochemical activity assay (Kinase-Glo Plus, ATP depletion). In outline:
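Recombinant GALK1 (5 nM) with 100 μM galactose; GALK1 turnover read as ATP depletion by Kinase-Glo Plus luminescence. Reaction ran 1 h at room temperature before detection reagent was added.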

Setting [3] is: Tables 18-19, read-out: Max Response (%).
[4] abbreviates: Tables 18-20 and text of Example 12.
The mark [5] stands for this setting: Tables 2-15, 35 μM ATP, 100 μM galactose, 1 h, bracketed figure after some values (e.g. −1.2) is undefined and not reported, read-out: hGALK IC50.
Setting [6] is: Tables 2-15, 35 μM ATP, 100 μM galactose, 1 h, bracketed figure after some values is undefined and not reported, read-out: mGALK IC50.
Where [7] appears, read: recombinant mouse GALK1, Kinase-Glo Plus ATP depletion, read-out: mGALK.
Where [8] appears, read: Tables 18-19 and text of Example 12.
Setting [9] is: recombinant human GALK1, Kinase-Glo Plus ATP depletion, read-out: hGALK.
[10] abbreviates: 1 h, Table 17, read-out: Efficacy.
Setting [11] is: Table 17, amide group optimization, no unit in table.

Chain of recombinant mouse GALK1 (Q9R0N0 whole entry): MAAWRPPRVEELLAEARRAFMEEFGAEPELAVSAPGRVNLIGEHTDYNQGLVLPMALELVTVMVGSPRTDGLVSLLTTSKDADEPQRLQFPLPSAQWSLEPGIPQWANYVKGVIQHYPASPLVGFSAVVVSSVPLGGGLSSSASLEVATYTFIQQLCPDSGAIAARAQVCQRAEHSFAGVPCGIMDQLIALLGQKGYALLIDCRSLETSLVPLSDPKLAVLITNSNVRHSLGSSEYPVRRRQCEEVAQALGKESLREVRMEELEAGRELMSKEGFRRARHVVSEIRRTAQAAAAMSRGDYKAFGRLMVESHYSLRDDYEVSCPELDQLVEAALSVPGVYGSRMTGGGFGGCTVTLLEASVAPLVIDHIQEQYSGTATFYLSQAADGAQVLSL
Chain of recombinant human GALK1 (P51570 whole entry): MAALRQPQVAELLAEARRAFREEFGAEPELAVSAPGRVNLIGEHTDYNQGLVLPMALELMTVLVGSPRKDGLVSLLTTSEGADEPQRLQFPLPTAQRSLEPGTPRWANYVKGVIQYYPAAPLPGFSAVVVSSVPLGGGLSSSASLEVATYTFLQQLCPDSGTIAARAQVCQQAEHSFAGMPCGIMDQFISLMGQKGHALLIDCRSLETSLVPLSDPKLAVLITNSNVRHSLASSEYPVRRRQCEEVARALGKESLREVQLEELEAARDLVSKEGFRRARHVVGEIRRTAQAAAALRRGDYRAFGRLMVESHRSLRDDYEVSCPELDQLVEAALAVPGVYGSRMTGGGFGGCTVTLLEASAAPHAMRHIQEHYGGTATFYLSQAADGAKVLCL
T1 sequence (P51570 whole entry K252A/E253A): as the sequence (P51570 whole entry) above, with K252A, E253A counted along it

Consider `CC1=C(C(=O)Nc2cc(C(=O)O)ccn2)C(c2ccccc2Cl)N=C(Nc2nc3cccc(C)c3o2)N1` (centres unmarked) [Compound 15, 2-(4-(2-chlorophenyl)-6-methyl-2-((7-methylbenzo[d]oxazol-2-yl)amino)-1,4-dihydropyrimidine-5-carboxamido)isonicotinic acid], for which, in data set [1] (microsomal half-life), the “Metab. Stabil. (m)” value was above 30 m. Moreover, in data set [1], the half-life was below 10 min. The Emax at hGALK1m (setting [3]) stood at 100%. Also, the IC50 was found to be 0.365 µM against hGALK1m (setting [4]), 0.97 µM on recombinant human GALK1 (setting [5]), 6.85 µM on recombinant mouse GALK1 (setting [6]) and 6.85 µM on recombinant mouse GALK1 (setting [7]). Also, the “fold improvement of potency (IC50) versus parent compound” value on hGALK1m (increase in potency relative to the unsubstituted parent) came to 2.6 fold. For the same molecule, the Papp in the data set “PAMPA permeability” (PAMPA) was below 10 ×10⁻⁶ cm/s. The “Sol.” value in data set [2] was above 76 µg/mL.
`CC1=C(C(=O)Nc2cc(C(=O)O)ccn2)C(c2ccccc2Cl)N=C(Nc2nc3c(C)cccc3o2)N1` (centres unmarked) [Compound 18, 2-(4-(2-chlorophenyl)-6-methyl-2-((4-methylbenzo[d]oxazol-2-yl)amino)-1,4-dihydropyrimidine-5-carboxamido)isonicotinic acid]: the “Metab. Stabil. (m)” value in data set [1] (microsomal half-life) is above 30 m. The same molecule showed a half-life in data set [1] below 10 min. Further, on hGALK1m (setting [3]), the Emax worked out at 100%. Besides, the IC50 was determined as 5.5 µM at hGALK1m (setting [8]), 9.68 µM on recombinant human GALK1 (setting [9]), 17.2 µM at recombinant mouse GALK1 (setting [6]) and 17.2 µM on recombinant mouse GALK1 (setting [7]). Besides, the “Perm. (1 × 10^−6 cm/sec)” value in the data set “PAMPA permeability” is recorded as <1.3 1 × 10^−6 cm/sec. Besides, the Papp in “PAMPA permeability” (PAMPA) was below 10 ×10⁻⁶ cm/s. The “Sol.” value in data set [2] was 3.5 µg/mL.
For the molecule `CC1=C(C(=O)NCc2nc3ccccc3n2C)C(c2ccccc2Cl)N=C(Nc2nc3ccccc3o2)N1` (centres unmarked) [Compound 234, 2-(benzo[d]oxazol-2-ylamino)-4-(2-chlorophenyl)-6-methyl-N-((1-methyl-1H-benzo[d]imidazol-2-yl)methyl)-1,4-dihydropyrimidine-5-carboxamide], the “Metab. Stabil. (m)” value in data set [1] (microsomal stability half-life) came to 4.516 m. In data set [1], this molecule gave a half-life below 10 min. Also, on hGALK1m, the “change of potency versus parent compound (in words)” value (“change” below) was “significantly impaired the potency”. In addition, the Emax on hGALK1m (setting [10]) turned out to be 48%. The IC50 was found to be 8.63 µM on recombinant human GALK1 (setting [5]), 8.63 µM at recombinant human GALK1 (setting [9]), 13.7 µM on recombinant mouse GALK1 (setting [6]) and 13.7 µM at recombinant mouse GALK1 (setting [7]). Further, in the data set “PAMPA permeability” (PAMPA), the Papp was below 10 ×10⁻⁶ cm/s. Moreover, the “Sol.” value in data set [2] (aqueous kinetic solubility) is below 1 µg/mL.
Take `CC1=C(C(=O)Nc2cc(C(=O)O)ccn2)C(c2ccccc2Br)N=C(Nc2nc3ccc(F)cc3o2)N1` (centres unmarked) [Compound 75, 2-(4-(2-bromophenyl)-2-((6-fluorobenzo[d]oxazol-2-yl)amino)-6-methyl-1,4-dihydropyrimidine-5-carboxamido)isonicotinic acid]: the “Metab. Stabil. (m)” value in data set [1] (microsomal half-life) is given as above 30 m. In data set [1], this molecule showed a half-life below 10 min. The “change” value on hGALK1m is “little impact on the potency”. Besides, the Emax at hGALK1m (setting [3]) stood at 100%. For the same molecule, the IC50 is 0.235 µM on hGALK1m (setting [4]), 0.54 µM at recombinant human GALK1 (setting [5]), 3.85 µM at recombinant mouse GALK1 (setting [6]) and 3.85 µM on recombinant mouse GALK1 (setting [7]). This molecule also showed a Papp in the data set “PAMPA permeability” (PAMPA) below 10 ×10⁻⁶ cm/s. Also, the “Sol.” value in data set [2] came to 36.0 µg/mL.
With `CC1=C(C(=O)Nc2cc(C(=O)O)ccn2)C(c2ccccc2Cl)N=C(Nc2nc3ccc(C)cc3o2)N1` (centres unmarked) [Compound 6, 2-(4-(2-chlorophenyl)-6-methyl-2-((6-methylbenzo[d]oxazol-2-yl)amino)-1,4-dihydropyrimidine-5-carboxamido)isonicotinic acid], in data set [1] (microsomal half-life), the “Metab. Stabil. (m)” value is above 30 m. In data set [1], this molecule showed a half-life below 10 min. Further, at hGALK1m (setting [3]), the Emax stood at 100%. Moreover, the IC50 is 6.9 µM against hGALK1m (setting [8]), 5.44 µM on recombinant human GALK1 (setting [5]), 17.2 µM at recombinant mouse GALK1 (setting [6]) and 17.2 µM at recombinant mouse GALK1 (setting [7]). In addition, the “fold decrease of potency versus parent compound” value on hGALK1m (loss of potency relative to the unsubstituted parent) is reported as around 7 fold. Further, the “Perm. (1 × 10^−6 cm/sec)” value in “PAMPA permeability” is reported as <1 1 × 10^−6 cm/sec. In the data set “PAMPA permeability” (PAMPA), this molecule registered an apparent permeability coefficient (Papp) below 10 ×10⁻⁶ cm/s. In data set [2], the “Sol.” value is 34.42 µg/mL.
In the case of `CC1=C(C(=O)NCc2cncn2C)C(c2ccccc2Cl)N=C(Nc2nc3ccccc3o2)N1` (centres unmarked) [Compound 230, 2-(benzo[d]oxazol-2-ylamino)-4-(2-chlorophenyl)-6-methyl-N-((1-methyl-1H-imidazol-5-yl)methyl)-1,4-dihydropyrimidine-5-carboxamide], the “Metab. Stabil. (m)” value in data set [1] (microsomal stability half-life) was 8.8722 m. In data set [1], the half-life is below 10 min. The Emax on hGALK1m (setting [10]) amounted to 98%. The IC50 against hGALK1m (setting [11]) worked out at 1.4 µM; at recombinant human GALK1 (setting [9]), 1.72 µM; on recombinant mouse GALK1 (setting [6]) it was 6.85 µM; at recombinant mouse GALK1 (setting [7]), 6.85 µM. The “Perm. (1 × 10^−6 cm/sec)” value in “PAMPA permeability” (PAMPA) is 98.8 1 × 10^−6 cm/sec. Besides, the Papp in the data set “PAMPA permeability” (PAMPA) is below 10 ×10⁻⁶ cm/s. The “Sol.” value in data set [2] (aqueous kinetic solubility) came to 42.0 µg/mL.
Consider `COc1ccc2oc(NC3=NC(c4ccccc4Cl)C(C(=O)Nc4cc(C(=O)O)ccn4)=C(C)N3)nc2c1` (centres unmarked) [Compound 5, 2-(4-(2-chlorophenyl)-2-((5-methoxybenzo[d]oxazol-2-yl)amino)-6-methyl-1,4-dihydropyrimidine-5-carboxamido)isonicotinic acid], for which, in data set [1] (microsomal half-life), the “Metab. Stabil. (m)” value was above 30 m. Moreover, the half-life in data set [1] is below 10 min. For the same molecule, at hGALK1m (setting [3]), the Emax amounted to 100%. Also, the IC50 turned out to be 2 µM against hGALK1m (setting [8]), 6.85 µM on recombinant human GALK1 (setting [9]), 12.2 µM at recombinant mouse GALK1 (setting [6]) and 12.2 µM on recombinant mouse GALK1 (setting [7]). The “Perm. (1 × 10^−6 cm/sec)” value in the data set “PAMPA permeability” is <1 1 × 10^−6 cm/sec. The molecule further yielded a Papp in “PAMPA permeability” (PAMPA) below 10 ×10⁻⁶ cm/s. Further, the “Sol.” value in data set [2] is above 79 µg/mL.
For the molecule `CC1=C(C(=O)Nc2ccc(C(=O)O)cc2)C(c2ccccc2Cl)N=C(Nc2nc3ccccc3o2)N1` (centres unmarked) [Compound 143, 4-(2-(benzo[d]oxazol-2-ylamino)-4-(2-chlorophenyl)-6-methyl-1,4-dihydropyrimidine-5-carboxamido)benzoic acid], in data set [1] (microsomal stability half-life), the “Metab. Stabil. (m)” value is recorded as above 30 m. Further, the half-life in data set [1] is below 10 min. Moreover, the Emax on hGALK1m (setting [10]) was 100%. Moreover, the IC50 against hGALK1m (setting [11]) is 1.4 µM; on recombinant human GALK1 (setting [5]) it was 1.53 µM; at recombinant mouse GALK1 (setting [6]), 6.11 µM; at recombinant mouse GALK1 (setting [7]) it was 6.11 µM. In addition, the “Perm. (1 × 10^−6 cm/sec)” value in “PAMPA permeability” (PAMPA) is recorded as 3.6 1 × 10^−6 cm/sec. This molecule also gave a Papp in the data set “PAMPA permeability” (PAMPA) below 10 ×10⁻⁶ cm/s. Moreover, the “Sol.” value in data set [2] (aqueous kinetic solubility) is below 1 µg/mL.
For `CC1=C(C(=O)Nc2cc(C(=O)O)ccn2)C(c2ccccc2Cl)N=C(Nc2nc3cccc(Cl)c3o2)N1` (centres unmarked) [Compound 17, 2-(2-((7-chlorobenzo[d]oxazol-2-yl)amino)-4-(2-chlorophenyl)-6-methyl-1,4-dihydropyrimidine-5-carboxamido)isonicotinic acid], the “Metab. Stabil. (m)” value in data set [1] (microsomal half-life) is listed as above 30 m. This molecule registered a half-life in data set [1] below 10 min. In addition, the “change” value at hGALK1m was “did not change the potency”. Moreover, the Emax at hGALK1m (setting [3]) came out at 100%. For the same molecule, the IC50 on hGALK1m (setting [8]) was 1 µM; at recombinant human GALK1 (setting [5]), 1.93 µM; on recombinant mouse GALK1 (setting [6]), 9.68 µM; at recombinant mouse GALK1 (setting [7]), 9.68 µM. In addition, the “Perm. (1 × 10^−6 cm/sec)” value in “PAMPA permeability” is <1 1 × 10^−6 cm/sec. In the data set “PAMPA permeability” (PAMPA), the Papp is below 10 ×10⁻⁶ cm/s. In addition, in data set [2], the “Sol.” value was found to be 57.5 µg/mL.
